We go through 40 molecules from patent US9120770B2, “Substituted pyridine and pyrazine compounds as PDE4 inhibitors” (DART NEUROSCIENCE (CAYMAN) LTD., priority 2013, dated 2015).

Bounds are passed on as bounds.

For this test, the target named is PDE4D3 (Homo sapiens, UniProt Q08499).
Sequence of PDE4D3 (Q08499 1-673 isoform Q08499-2): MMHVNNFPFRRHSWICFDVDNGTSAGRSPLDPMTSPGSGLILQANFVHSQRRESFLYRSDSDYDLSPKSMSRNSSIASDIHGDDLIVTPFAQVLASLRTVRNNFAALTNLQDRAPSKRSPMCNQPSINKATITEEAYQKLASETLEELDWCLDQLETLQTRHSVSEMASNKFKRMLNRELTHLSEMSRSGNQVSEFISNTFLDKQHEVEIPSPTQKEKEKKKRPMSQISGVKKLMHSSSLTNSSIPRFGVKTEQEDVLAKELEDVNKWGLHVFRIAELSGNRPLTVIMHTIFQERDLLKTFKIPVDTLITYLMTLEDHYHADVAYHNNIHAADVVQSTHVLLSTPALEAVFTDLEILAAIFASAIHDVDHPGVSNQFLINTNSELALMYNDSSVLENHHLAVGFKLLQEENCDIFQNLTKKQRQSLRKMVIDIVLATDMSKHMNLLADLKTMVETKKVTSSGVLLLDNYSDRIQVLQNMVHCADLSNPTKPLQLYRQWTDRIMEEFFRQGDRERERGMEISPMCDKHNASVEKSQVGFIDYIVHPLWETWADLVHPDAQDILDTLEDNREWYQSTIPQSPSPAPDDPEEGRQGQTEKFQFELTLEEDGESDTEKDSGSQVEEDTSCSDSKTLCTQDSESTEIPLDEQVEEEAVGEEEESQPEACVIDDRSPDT
As usually defined, the EC50 is the concentration giving half of the maximal effect. Higher therefore signals a need for much substance. In turn, `OCc1ncn(Cc2cnc(OC(F)F)c(-c3ccnc(OC(F)F)c3)c2)n1` [Example 207, (1-{[6-(Difluoromethoxy)-5-[2-(difluoromethoxy)pyridin-4-yl]pyridin-3-yl]methyl}-1H-1,2,4-triazol-3-yl)methanol] yielded an EC50 of 100 to 1000 nM.

Turning to `CCOc1ncc(Cn2cnc(CO)n2)nc1-c1cccc(OC(F)F)c1` [Example 208, [1-({6-[3-(Difluoromethoxy)phenyl]-5-ethoxypyrazin-2-yl}methyl)-1H-1,2,4-triazol-3-yl]methanol], the EC50 was in the range of 100 to 1000 nM.

The molecule `CCOc1ncc(Cn2ncnc2CO)nc1-c1cccc(OC(F)F)c1` [Example 209, [1-({6-[3-(Difluoromethoxy)phenyl]-5-ethoxypyrazin-2-yl}methyl)-1H-1,2,4-triazol-5-yl]methanol] yielded an EC50 of 1000 to 10000 nM.

In turn, `COc1ncc(Cn2ncnc2CO)nc1-c1cccc(Cl)c1` [Example 210, (1-{[6-(3-Chlorophenyl)-5-methoxypyrazin-2-yl]methyl}-1H-1,2,4-triazol-5-yl)methanol] had an EC50 of 1000 to 10000 nM.

`COc1ncc(Cn2cnc(CO)n2)nc1-c1cccc(OC(F)F)c1` [Example 211, [1-({6-[3-(Difluoromethoxy)phenyl]-5-methoxypyrazin-2-yl}-methyl)-1H-1,2,4-triazol-3-yl]methanol] registered an EC50 of 100 to 1000 nM.

`CCOc1ncc(Cn2cnc(CO)n2)nc1-c1cccc(Cl)c1` [Example 212, (1-{[6-(3-Chlorophenyl)-5-ethoxypyrazin-2-yl]methyl}-1H-1,2,4-triazol-3-yl)methanol] showed an EC50 of 100 to 1000 nM.

For the molecule `COc1ncn(Cc2cnc(OC)c(-c3cccc(Cl)c3)c2)n1` [Example 213, 3-(3-Chlorophenyl)-2-methoxy-5-[(3-methoxy-1H-1,2,4-triazol-1-yl)methyl]pyridine], the EC50 lay in the range of 100 to 1000 nM.

In turn, `COc1ncn(Cc2cnc(OC(F)F)c(-c3cccc(Cl)c3)c2)n1` [Example 214, 3-(3-Chlorophenyl)-2-(difluoromethoxy)-5-[(3-methoxy-1H-1,2,4-triazol-1-yl)methyl]pyridine] showed an EC50 of 100 to 1000 nM.

`COc1ncnn1Cc1cnc(OC(F)F)c(-c2cccc(Cl)c2)c1` [Example 215, 3-(3-Chlorophenyl)-2-(difluoromethoxy)-5-[(5-methoxy-1H-1,2,4-triazol-1-yl)methyl]pyridine] showed an EC50 of 1000 to 10000 nM.

For `CCOc1ncn(Cc2cnc(OC(F)F)c(-c3cccc(Cl)c3)c2)n1` [Example 216, 3-(3-Chlorophenyl)-2-(difluoromethoxy)-5-[(3-ethoxy-1H-1,2,4-triazol-1-yl)methyl]pyridine], the EC50 fell in the range of 100 to 1000 nM.

`COc1ncc(Cn2cnc(N)n2)cc1-c1cccc(OC(F)F)c1` [Example 217, 1-({5-[3-(Difluoromethoxy)phenyl]-6-methoxypyridin-3-yl}methyl)-1H-1,2,4-triazol-3-amine] had a 50% effective concentration (EC50) of less than 100 nM.

On to `COc1ncc(Cn2cnc(N)n2)cc1-c1cccc(Cl)c1` [Example 218, 1-{[5-(3-Chlorophenyl)-6-methoxypyridin-3-yl]methyl}-1H-1,2,4-triazol-3-amine], for which the EC50 was 100 to 1000 nM.

The molecule `Nc1ncn(Cc2cnc(OC(F)F)c(-c3cccc(Cl)c3)c2)n1` [Example 219, 1-{[5-(3-Chlorophenyl)-6-(difluoromethoxy)pyridin-3-yl]methyl}-1H-1,2,4-triazol-3-amine] registered an EC50 of less than 100 nM.

Take `COc1ncc(Cn2cnc(N)n2)cc1-c1cccc(F)c1` [Example 220, 1-{[5-(3-Fluorophenyl)-6-methoxypyridin-3-yl]methyl}-1H-1,2,4-triazol-3-amine]: the concentration giving a half-maximal response (EC50) fell in the range of 100 to 1000 nM.

Take `COc1cccc(-c2cc(Cn3cnc(N)n3)cnc2OC)c1` [Example 221, 1-{[6-Methoxy-5-(3-methoxyphenyl)pyridin-3-yl]methyl}-1H-1,2,4-triazol-3-amine]: the EC50 fell in the range of 100 to 1000 nM.

Consider `COc1ncc(Cn2cnc(N)n2)cc1-c1cccc(C)c1` [Example 222, 1-{[6-Methoxy-5-(3-methylphenyl)pyridin-3-yl]methyl}-1H-1,2,4-triazol-3-amine], for which the EC50 is 100 to 1000 nM.

As to `COc1ncc(Cn2cnc(N)n2)cc1-c1cccc(C#N)c1` [Example 223, 3-{5-[(3-Amino-1H-1,2,4-triazol-1-yl)methyl]-2-methoxypyridin-3-yl}benzonitrile], the EC50 was 100 to 1000 nM.

`CCOc1cccc(-c2cc(Cn3cnc(N)n3)cnc2OC)c1` [Example 224, 1-{[5-(3-Ethoxyphenyl)-6-methoxypyridin-3-yl]methyl}-1H-1,2,4-triazol-3-amine]: the EC50 lay within 100 to 1000 nM.

`COc1ncc(Cn2cnc(N)n2)cc1-c1cccc(OC2CC2)c1` [Example 225, 1-{[5-(3-Cyclopropoxyphenyl)-6-methoxypyridin-3-yl]methyl}-1H-1,2,4-triazol-3-amine] gave an EC50 of 1000 to 10000 nM.

`CCOc1ncc(Cn2cnc(N)n2)cc1-c1cccc(OC(F)F)c1` [Example 226, 1-({5-[3-(Difluoromethoxy)phenyl]-6-ethoxypyridin-3-yl}methyl)-1H-1,2,4-triazol-3-amine]: the EC50 is less than 100 nM.

In the case of `COc1cccc(-c2cc(Cn3cnc(N)n3)cnc2OC(F)F)c1` [Example 227, 1-{[6-(Difluoromethoxy)-5-(3-methoxyphenyl)pyridin-3-yl]methyl}-1H-1,2,4-triazol-3-amine], the EC50 was in the range of 100 to 1000 nM.

As to `COc1ncc(Cn2cnc(N)n2)cc1-c1cncc(Cl)c1` [Example 228, 1-{[5-(5-Chloropyridin-3-yl)-6-methoxypyridin-3-yl]methyl}-1H-1,2,4-triazol-3-amine], the half-maximal effective concentration (EC50) is 1000 to 10000 nM.

As for `COc1ncc(Cn2cnc(N)n2)cc1-c1ccnc(OC(F)F)c1` [Example 229, 1-({5-[2-(Difluoromethoxy)pyridin-4-yl]-6-methoxypyridin-3-yl}methyl)-1H-1,2,4-triazol-3-amine], the EC50 is less than 100 nM.

Consider `CCOc1ncc(Cn2cnc(N)n2)cc1-c1ccnc(OC(F)F)c1` [Example 230, 1-({5-[2-(Difluoromethoxy)pyridin-4-yl]-6-ethoxypyridin-3-yl}methyl)-1H-1,2,4-triazol-3-amine], for which the 50% effective concentration (EC50) was less than 100 nM.

`Nc1ncn(Cc2cnc(OC(F)F)c(-c3ccnc(OC(F)F)c3)c2)n1` [Example 231, 1-{[6-(Difluoromethoxy)-5-[2-(difluoromethoxy)pyridin-4-yl]pyridin-3-yl]methyl}-1H-1,2,4-triazol-3-amine] came in with a half-maximal effective concentration (EC50) of 100 to 1000 nM.

Turning to `COc1ncc(Cn2ccc(N)n2)cc1-c1cccc(OC(F)F)c1` [Example 232, 1-({5-[3-(Difluoromethoxy)phenyl]-6-methoxypyridin-3-yl}methyl)-1H-pyrazol-3-amine], the EC50 is less than 100 nM.

As to `COc1ncc(Cn2nccc2N)cc1-c1cccc(OC(F)F)c1` [Example 233, 1-({5-[3-(Difluoromethoxy)phenyl]-6-methoxypyridin-3-yl}methyl)-1H-pyrazol-5-amine], the EC50 lay in the range of 100 to 1000 nM.

In the case of `CCOc1ncc(Cn2cc(Cl)c(N)n2)cc1-c1cccc(Cl)c1` [Example 234, 4-Chloro-1-{[5-(3-chlorophenyl)-6-ethoxypyridin-3-yl]methyl}-1H-pyrazol-3-amine], the 50% effective concentration (EC50) is 100 to 1000 nM.

Consider `CCOc1ncc(Cn2ncc(Cl)c2N)cc1-c1cccc(Cl)c1` [Example 235, 4-Chloro-1-{[5-(3-chlorophenyl)-6-ethoxypyridin-3-yl]methyl}-1H-pyrazol-5-amine], for which the EC50 lay within 1000 to 10000 nM.

`COc1ncc(Cn2cc(N)cn2)nc1-c1cccc(Cl)c1` [Example 236, 1-{[6-(3-Chlorophenyl)-5-methoxypyrazin-2-yl]methyl}-1H-pyrazol-4-amine] displayed an EC50 of more than 10000 nM.

As to `CCOc1ncc(Cn2cnc(N)n2)nc1-c1cccc(OC(F)F)c1` [Example 237, 1-((6-(3-(Difluoromethoxy)phenyl)-5-ethoxypyrazin-2-yl)methyl)-1H-1,2,4-triazol-3-amine], the EC50 fell in the range of 1000 to 10000 nM.

Take `CNc1ncn(Cc2cnc(OC(F)F)c(-c3cccc(Cl)c3)c2)n1` [Example 238, 1-{[5-(3-Chlorophenyl)-6-(difluoromethoxy)pyridin-3-yl]methyl}-N-methyl 1H-1,2,4-triazol-3-amine]: the EC50 lay in the range of 100 to 1000 nM.

Turning to `CN(C)c1ncn(Cc2cnc(OC(F)F)c(-c3cccc(Cl)c3)c2)n1` [Example 239, 1-{[5-(3-Chlorophenyl)-6-(difluoromethoxy)pyridin-3-yl]methyl}-N,N-dimethyl-1H-1,2,4-triazol-3-amine], the EC50 fell in the range of 100 to 1000 nM.

The molecule `NCc1ncn(Cc2cnc(OC(F)F)c(-c3cccc(Cl)c3)c2)n1` [Example 240, (1-{[5-(3-Chlorophenyl)-6-(difluoromethoxy)pyridin-3-yl]methyl}-1H-1,2,4-triazol-3-yl)methanamine] registered an EC50 of 1000 to 10000 nM.

Molecule `COc1ncc(Cn2cnc(C(N)=O)n2)cc1-c1cccc(Cl)c1` [Example 241, 1-{[5-(3-Chlorophenyl)-6-methoxypyridin-3-yl]methyl}-1H-1,2,4-triazole-3-carboxamide] yielded an EC50 of 1000 to 10000 nM.

`COc1ncc(Cn2cncn2)cc1-c1cn[nH]c1` [Example 242, 2-Methoxy-3-(1H-pyrazol-4-yl)-5-(1H-1,2,4-triazol-1-ylmethyl)pyridine] registered an EC50 of more than 10000 nM.

`COc1ncc(Cc2ccc(C(=O)NC3COC3)cc2)cc1-c1cccc(Cl)c1` [Example 243, 4-{[5-(3-Chlorophenyl)-6-methoxypyridin-3-yl]methyl}-N-(oxetan-3-yl)benzamide] yielded an EC50 of 1000 to 10000 nM.

As for `CNC(=O)c1ccc(Cc2cnc(OC(F)F)c(-c3cccc(Cl)c3)c2)cn1` [Example 244, 5-{[5-(3-Chlorophenyl)-6-(difluoromethoxy)pyridin-3-yl]methyl}-N-methylpyridine-2-carboxamide], the EC50 lay in the range of 100 to 1000 nM.

`NC(=O)C1(c2ccc(Cc3cnc(OC(F)F)c(-c4cccc(Cl)c4)c3)cc2)CC1` [Example 245, 1-(4-{[5-(3-Chlorophenyl)-6-(difluoromethoxy)pyridin-3-yl]methyl}phenyl)cyclopropane-1-carboxamide]: the EC50 was in the range of 100 to 1000 nM.

In turn, `NC(=O)Cc1ccc(Cc2cnc(OC(F)F)c(-c3cccc(Cl)c3)c2)cc1` [Example 246, 2-(4-{[5-(3-Chlorophenyl)-6-(difluoromethoxy)pyridin-3-yl]methyl}phenyl)acetamide] yielded an EC50 of less than 100 nM.
